Entries after “also recorded” stand apart in the source; their conditions may differ.
Assays:
3T3-L1 cells = experiment: Inhibition of 3T3-L1 differentiation into mature adipocytes (Oil-Red-O staining); type: cell-based, murine; details: for inhibition of differentiation of 3T3-L1 cells into mature adipocytes (Oil-Red-O staining): result in words, MDI-treated cells, staining at day 10
Description: Various 19-nor vitamin D analogs were or are tested and found to inhibit the differentiation of preadipocytes into mature adipocytes, to reduce body fat, to inhibit an increase in PPARγ, C/EBPα, and/or SCD-1 gene transcription and to be useful in treating and preventing obesity both in vivo and in vitro. The undifferentiated preadipocyte 3T3-L1 subline, a derivative of the original mouse fibroblast cell line, is one of the most accepted models for investigating the adipogenesis process and was used for the analysis. Two days after reaching confluence, 3T3-L1 cells can be induced to differentiate into adipocytes (see Mackall, J. C. et al. J. Biol. Chem., 251(20), 6462-6464 (1976)) with the addition of a cAMP phosphodiesterase inhibitor, dexamethasone (a glucocortoid), and insulin. […] The induction of PPARγ and C/EBPα is required for adipocyte differentiation. […] SCD-1 is an enzyme found in adipocytes that converts saturated fatty acids (C16 and C18) to their monounsaturated forms (C16:1 and C18:1). The deposition of triglyceride can also be detected as early as 3 days, and by the 7th to 14th days post-confluence, greater than 80% of the cells in the monolayer stain positively with Oil-red-O.

[1] = target: T1, full-length recombinant rat vitamin D receptor (Rattus norvegicus, UniProt P13053); experiment: Vitamin D receptor binding (competition with 3H-1,25(OH)2D3); details: for binding to the vitamin D receptor, compared to 1α,25(OH)2D3: result in words, competition for tritiated hormone binding
T1 construct: Full-length recombinant rat receptor was expressed in E. coli; histidine tag (C); made in house; host or cells: E. coli BL21(DE3) Codon Plus RIL
T1 sequence (P13053 1-423): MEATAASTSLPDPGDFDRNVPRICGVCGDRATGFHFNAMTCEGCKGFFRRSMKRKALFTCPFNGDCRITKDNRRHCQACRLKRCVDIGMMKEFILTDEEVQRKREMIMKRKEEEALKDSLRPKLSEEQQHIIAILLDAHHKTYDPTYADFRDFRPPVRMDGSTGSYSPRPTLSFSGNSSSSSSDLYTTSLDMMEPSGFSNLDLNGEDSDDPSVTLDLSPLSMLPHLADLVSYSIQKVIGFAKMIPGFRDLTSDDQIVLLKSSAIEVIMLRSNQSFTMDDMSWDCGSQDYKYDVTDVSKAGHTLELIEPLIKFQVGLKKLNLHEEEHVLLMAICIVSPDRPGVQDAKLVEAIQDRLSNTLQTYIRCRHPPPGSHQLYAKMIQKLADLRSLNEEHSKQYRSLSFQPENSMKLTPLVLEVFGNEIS
Description: Full-length recombinant rat receptor was expressed in E. coli BL21(DE3) Codon Plus RIL cells and purified to homogeneity using two different column chromatography systems. The first system was a nickel affinity resin that utilizes the C-terminal histidine tag on this protein. The protein that was eluted from this resin was further purified using ion exchange chromatography (S-Sepharose Fast Flow). Aliquots of the purified protein were quick frozen in liquid nitrogen and stored at −80° C. until use. For use in binding assays, the protein was diluted in TEDK50 (50 mM Tris, 1.5 mM EDTA, pH 7.4, 5 mM DTT, 150 mM KCl) with 0.1% Chaps detergent. The receptor protein and ligand concentration was optimized such that no more than 20% of the added radiolabeled ligand was bound to the receptor.
Unlabeled ligands were dissolved in ethanol and the concentrations determined using UV spectrophotometry (1,25(OH)2D3: molar extinction coefficient=18,200 and λmax=265 nm; Analogs: molar extinction coefficient=42,000 and λmax=252 nm). Radiolabeled ligand (^3H-1,25(OH)2D3, ˜159 Ci/mmole) was added in ethanol at a final concentration of 1 nM.
Radiolabeled and unlabeled ligands were added to 100 mcl of the diluted protein at a final ethanol concentration of ≦10%, mixed and incubated overnight on ice to reach binding equilibrium. The following day, 100 mcl of hydroxylapatite slurry (50%) was added to each tube and mixed at 10-minute intervals for 30 minutes. The hydroxylapaptite was collected by centrifugation and then washed three times with Tris-EDTA buffer (50 mM Tris, 1.5 mM EDTA, pH 7.4) containing 0.5% Titron X-100. After the final wash, the pellets were transferred to scintillation vials containing 4 ml of Biosafe II scintillation cocktail, mixed and placed in a scintillation counter. Total binding was determined from the tubes containing only radiolabeled ligand.

SCD-1 mRNA = experiment: Inhibition of SCD-1 mRNA induction in 3T3-L1 cells (RT-PCR); type: cell-based, murine; details: for inhibition of SCD-1 mRNA induction: result in words, MDI-treated 3T3-L1 cells
Excerpt: Chomczynski, P. et al., Anal. […] NO: 4)).

[2] = Intestinal calcium transport (everted gut sac); type: in vivo; details: result in words; vitamin D deficient rat model, compared to 1α,25(OH)2D3
Description: (§1) Male, weanling Sprague-Dawley rats were placed on Diet 11 (0.47% Ca) diet+AEK for one week followed by Diet 11 (0.02% Ca)+AEK for 3 weeks. The rats were then switched to a diet containing 0.47% Ca for one week followed by two weeks on a diet containing 0.02% Ca. Dose administration began during the last week on 0.02% calcium diet. Four consecutive ip doses were given approximately 24 hours apart. Twenty-four hours after the last dose, blood was collected from the severed neck and the concentration of serum calcium determined as a measure of bone calcium mobilization. The first 10 cm of the intestine was also collected for intestinal calcium transport analysis using the everted gut sac method.

[3] = Bone calcium mobilization (serum calcium on low calcium diet); type: in vivo, rat; details: result in words; vitamin D deficient rat model, compared to 1α,25(OH)2D3
Description: as §1

[4] = test system: Human promyelocytic leukemia (HL60) cells; experiment: HL-60 differentiation (nitro blue tetrazolium reduction); type: cell-based; details: for differentiation of HL-60 cells, compared to 1α,25(OH)2D3: result in words
Description: The study drugs were dissolved in ethanol and the concentrations determined using UV spectrophotometry. Serial dilutions were prepared so that a range of drug concentrations could be tested without changing the final concentration of ethanol (≦0.2%) present in the cell cultures.
Human promyelocytic leukemia (HL60) cells were grown in RPMI-1640 medium containing 10% fetal bovine serum. The cells were incubated at 37° C. in the presence of 5% CO2.
HL60 cells were plated at 1.2×10^5 cells/ml. Eighteen hours after plating, cells in duplicate were treated with drug. Four days later, the cells were harvested and a nitro blue tetrazolium reduction assay was performed (Collins et al., 1979; J. Exp. Med. 149:969-974). The percentage of differentiated cells was determined by counting a total of 200 cells and recording the number that contained intracellular black-blue formazan deposits. Verification of differentiation to monocytic cells was determined by measuring phagocytic activity (data not shown).

[5] = test system: 24-hydroxylase (24Ohase) gene promoter in ROS 17/2.8 (bone) cells; experiment: In vitro transcription assay (luciferase reporter); type: cell-based; details: result in words
Description: Transcription activity was measured in ROS 17/2.8 (bone) cells that were stably transfected with a 24-hydroxylase (24Ohase) gene promoter upstream of a luciferase reporter gene (Arbour et al., 1998). Cells were given a range of doses. Sixteen hours after dosing the cells were harvested and luciferase activities were measured using a luminometer. RLU=relative luciferase units.

Compound	inhibition of differentiation of 3T3-L1 cells into mature adipocytes (Oil-Red-O staining) (3T3-L1 cells)	binding to the vitamin D receptor, compared to 1α,25(OH)2D3 [1]	intestinal calcium transport activity [2]	bone calcium mobilization activity [3]	differentiation of HL-60 cells, compared to 1α,25(OH)2D3 [4]	transcriptional activity in bone cells, compared to 1α,25(OH)2D3 [5]	other results
CC(CCCC(C)(C)O)C1CCC2C(=CC=C3CC(O)C(=CCCO)C(O)C3)CCCC21C (centres unmarked) [1AGS]	nearly equipotent; also recorded: highest activity; also recorded: so much greater; also recorded: active	very active	relatively high intestinal calcium transport activity; also recorded: active	significant ability to mobilize calcium from bone; also recorded: active	as potent as	significant transcriptional activity	inhibition of differentiation of 3T3-L1 cells into mature adipocytes (Oil-Red-O staining) (3T3-L1 cells; listed as LAGS): slightly more active; binding to the vitamin D receptor, compared to 1α,25(OH)2D3 ([1]; listed as AGS): less than five times less potent; inhibition of SCD-1 mRNA induction (SCD-1 mRNA): nearly equipotent; also recorded: active; cells induced to differentiate in the NBT assay ([4]; concentration 1×10^−7 M): same degree of differentiation
C=C1[C@H](O)CC(=C/C=C2\CCC[C@]3(C)[C@@H]([C@H](C)/C=C/[C@@H](C)C(C)(C)O)CC[C@@H]23)C[C@H]1O [(24epi)D2]	improved; also recorded: active		less active	less active			higher affinity binding to the vitamin D receptor than the native hormone ([1]; higher affinity than native hormone): approximately 0.5 log units
CCCC[C@H](C)[C@H]1CC[C@H]2/C(=C/C=C3C[C@@H](O)C(C)[C@H](O)C3)CCC[C@]12C (stereo partly drawn) [2α-methyl-19,26,27-trinor, 2α-methyl-19,26,27-trinor-(20S)-1α-hydroxyvitamin D3]		bound equally well		very little bone calcium mobilization activity	almost as potent	similar	
C[C@H](/C=C/[C@H](C)C(C)(C)O)[C@H]1CC[C@H]2/C(=C/C=C3C[C@@H](O)C[C@H](O)C3)CCC[C@]12C [19-nor-1α,25-dihydroxyvitamin D2, reference compound]	equivalent in potency; also recorded: active	as well as the native hormone		very low bone calcium mobilizing activity			inhibition of differentiation of 3T3-L1 cells into mature adipocytes (Oil-Red-O staining) (3T3-L1 cells; listed as 19-nor-1α,25-dihydroxyvitamin D2): more active
C=C1[C@H](O)CC(=C/C=C2\CCC[C@]3(C)[C@@H]([C@@H](C)CCCC(C)(C)C)CC[C@@H]23)C[C@H]1O [TMM]	inhibit; also recorded: effective		active	active			
C=C1[C@H](O)CC(=C/C=C2\CCC[C@]3(C)[C@@H](CC)CC[C@@H]23)C[C@H]1O [2-Mpregna]	nearly as potent as the native hormone	as or nearly effective as calcitriol	little, if any, activity	little, if any, activity			inhibition of differentiation of 3T3-L1 cells into mature adipocytes (Oil-Red-O staining) (3T3-L1 cells; listed as 2Mpregna): still active; inhibition of differentiation of MDI-treated 3T3-L1 cells (oil-red-O staining) (3T3-L1 cells; tested at 1×10^−8.5 M): active; inhibition of SCD-1 mRNA induction (SCD-1 mRNA): nearly as potent as the native hormone; inhibition of SCD-1 mRNA induction (SCD-1 mRNA; listed as 2Mpregna): still active; inhibition of SCD1 mRNA induction (SCD-1 mRNA; tested at 1×10^−8.5 M): active
C=C1[C@H](O)C/C(=C/C=C2\CCC[C@]3(C)[C@@H]([C@@H](C)CC)CC[C@@H]23)C[C@@H]1O [(1β,20S)2MbisP, (20S)-1β-hydroxy-2-methylene-19-nor-bishomo-pregnacalciferol, reference compound]		binds poorly, if at all					inhibition of differentiation of 3T3-L1 cells into mature adipocytes (Oil-Red-O staining) (3T3-L1 cells; listed as 1-(20S)2-MbisP): unable to inhibit; inhibition of differentiation of 3T3-L1 cells into mature adipocytes (Oil-Red-O staining) (3T3-L1 cells; listed as (1βOH, 20S)2M-BisP): ineffective; inhibition of SCD-1 mRNA induction (SCD-1 mRNA; listed as 1-(20S)2-MbisP): unable to inhibit; inhibition of SCD-1 mRNA induction (SCD-1 mRNA; listed as (1βOH, 20S)2M-BisP): ineffective
C=C1[C@H](O)CC(=C/C=C2\CCC[C@@H]3[C@@H](C(C)C)CC[C@@H]23)C[C@H]1O [18,19-dinor-2MP, 2-methylene-18,19-dinor-1α-hydroxyhomopregnacalciferol]		bound equally well	very little activity	very little bone calcium mobilization activity	almost as potent	about the same transcriptional activity	
